Data reported in patent US6737383B1, “Herbicidal oxadiazolidines” (priority 1999, dated 2004).

Tests used:
bedstraw = test: Test B pre/postemergence bedstraw; assay type: in vivo, Galium aparine
How it was run: (§1)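 Response is a visual 0-to-10 score relative to untreated plants, where 0 means no effect and 10 means complete control, taken twelve to sixteen days after application. Treatments went onto soil at planting and onto foliage of 1- to 4-leaf plants, using a surfactant-containing non-phytotoxic solvent.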

blackgrass = test: Test B pre/postemergence blackgrass; assay type: in vivo, Alopecurus myosuroides
How it was run: as §1

surinam grass = test: Test B pre/postemergence surinam grass; assay type: in vivo, Brachiaria decumbens
How it was run: as §1

cocklebur = test: Test B pre/postemergence cocklebur; assay type: in vivo, Xanthium strumarium
How it was run: as §1

corn = test: Test B pre/postemergence corn; assay type: in vivo, Zea mays
How it was run: as §1

morningglory = test: Test B pre/postemergence morningglory; assay type: in vivo, Ipomoea hederacea
How it was run: as §1

pigweed = test: Test B pre/postemergence pigweed; assay type: in vivo, Amaranthus retroflexus
How it was run: as §1

rape = test: Test B pre/postemergence rape; assay type: in vivo, Brassica napus
How it was run: as §1

soybean = test: Test B pre/postemergence soybean; assay type: in vivo, Glycine max
How it was run: as §1

sugar beet = test: Test B pre/postemergence sugar beet; assay type: in vivo, Beta vulgaris; conditions: for Plant response rating, Sugarbeets: Rate 250 g/ha
How it was run: as §1

velvetleaf = test: Test B pre/postemergence velvetleaf; assay type: in vivo, Abutilon theophrasti; conditions: for Plant response rating, Velvetleaf: Rate 250 g/ha
How it was run: as §1

wild oat = test: Test B pre/postemergence wild oat; assay type: in vivo, Avena fatua; conditions: for Plant response rating, Wild oats: Rate 250 g/ha
How it was run: as §1

purple nutsedge = test: Test B pre/postemergence purple nutsedge; assay type: in vivo, Cyperus rotundus
How it was run: as §1

rice = test: Test B flood test rice; assay type: in vivo, Oryza sativa
How it was run: (§2)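 Plants were grown to the 2-leaf stage before treatment with test chemical, then held in a greenhouse for twelve to sixteen days. Injury was visually rated against untreated controls on a 0–10 scale, where 0 is no effect and 10 is complete control.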

smallflower flatsedge = test: Test B flood test smallflower flatsedge; assay type: in vivo, Cyperus difformis
How it was run: as §2

bamyardgrass = test: Test B flood test barnyardgrass; assay type: in vivo, Echinochloa crus-galli
How it was run: as §2

[1] = Preemergence, Rate 62 g/ha, scale 0 to 10 (0 no effect, 10 complete control)
[2] = Preemergence, Rate 125 g/ha, scale 0 to 10 (0 no effect, 10 complete control)
[3] = Preemergence, Rate 250 g/ha, scale of 0 to 10 where 0 is no effect and 10 is complete control
[4] = Preemergence, Rate 500 g/ha, scale 0 (no effect) to 10 (complete control)
[5] = Rate 500 g/ha, Postemergence, scale 0 to 10, 0 no effect, 10 complete control
[6] = Postemergence, Rate 125 g/ha, scale of 0 to 10 where 0 is no effect and 10 is complete control
[7] = Postemergence, Rate 250 g/ha, scale 0 to 10, 0 no effect, 10 complete control
[8] = Rate 62 g/ha, Postemergence, scale of 0 to 10 where 0 is no effect and 10 is complete control
[9] = Postemergence, Rate 62 g/ha, scale 0 to 10, 0 is no effect, 10 is complete control
[10] = Rate 250 g/ha, Postemergence, scale 0 to 10, 0 is no effect, 10 is complete control
[11] = Preemergence, Rate 125 g/ha, 0 is no effect, 10 is complete control
[12] = Preemergence, scale of 0 to 10 where 0 is no effect and 10 is complete control
[13] = Postemergence, scale 0 to 10, 0 is no effect, 10 is complete control
[14] = Postemergence (flood test species), Rate 125 g/ha, scale of 0 to 10 where 0 is no effect and 10 is complete control
[15] = Rate 62 g/ha, Postemergence section, flood test species, scale of 0 to 10 where 0 is no effect and 10 is complete control
[16] = Rate 250 g/ha, Postemergence (flood test), scale 0 to 10, 0 is no effect, 10 is complete control
[17] = Rate 500 g/ha, listed under Postemergence (flood test species), scale 0 to 10, 0 no effect, 10 complete control

CCc1noc(C)c1-n1c(=O)on(C(=O)N(c2ccc(F)cc2)C(C)C)c1=O [Compound 101]
Bedstraw plant response rating (bedstraw; [1]): 0 | Plant response rating, Bedstraw (bedstraw; [2]): 0 | Plant response rating, Bedstraw (bedstraw; [3]): 0 | Bedstraw plant response rating (bedstraw; [4]): 0 | Bedstraw plant response rating (bedstraw; [5]): 0 | Blackgrass plant response rating (blackgrass; [6]): 0 | Blackgrass plant response rating (blackgrass; [7]): 0 | Blackgrass plant response rating (blackgrass; [1]): 0 | Plant response rating, Blackgrass (blackgrass; [2]): 0 | Plant response rating, Blackgrass (blackgrass; [3]): 0 | Blackgrass plant response rating (blackgrass; [4]): 0 | Blackgrass plant response rating (blackgrass; [8]): 0 | Blackgrass plant response rating (blackgrass; [5]): 0 | B. signalgrass plant response rating (surinam grass; [9]): 0 | B. signalgrass plant response rating (surinam grass; [7]): 0 | B. signalgrass plant response rating (surinam grass; [1]): 0 | Plant response rating, B. signalgrass (surinam grass; [2]): 0 | Plant response rating, B. signalgrass (surinam grass; [3]): 0 | B. signalgrass plant response rating (surinam grass; [4]): 0 | B. signalgrass plant response rating (surinam grass; Rate 125 g/ha, Postemergence, scale 0 to 10, 0 no effect, 10 complete control): 0 | B. signalgrass plant response rating (surinam grass; Rate 500 g/ha, Postemergence, scale of 0 to 10 where 0 is no effect and 10 is complete control): 0 | Cocklebur plant response rating (cocklebur; [6]): 0 | Cocklebur plant response rating (cocklebur; [7]): 0 | Cocklebur plant response rating (cocklebur; [1]): 0 | Plant response rating, Cocklebur (cocklebur; [2]): 0 | Plant response rating, Cocklebur (cocklebur; [3]): 0 | Cocklebur plant response rating (cocklebur; [8]): 0 | Cocklebur plant response rating (cocklebur; [5]): 0 | Corn plant response rating (corn; [6]): 0 | Corn plant response rating (corn; [7]): 0 | Corn plant response rating (corn; [1]): 0 | Plant response rating, Corn (corn; [2]): 0 | Plant response rating, Corn (corn; [3]): 0 | Corn plant response rating (corn; [4]): 0 | Corn plant response rating (corn; [8]): 0 | Corn plant response rating (corn; [5]): 0 | Morningglory plant response rating (morningglory; [6]): 0 | Morningglory plant response rating (morningglory; [7]): 1 | Morningglory plant response rating (morningglory; [1]): 0 | Plant response rating, Morningglory (morningglory; [2]): 0 | Plant response rating, Morningglory (morningglory; [3]): 0 | Morningglory plant response rating (morningglory; [4]): 0 | Morningglory plant response rating (morningglory; [8]): 0 | Morningglory plant response rating (morningglory; [5]): 1 | Redroot pigweed plant response rating (pigweed; [6]): 0 | Redroot pigweed plant response rating (pigweed; [1]): 0 | Plant response rating, Redroot pigweed (pigweed; [2]): 0 | Plant response rating, Redroot pigweed (pigweed; [3]): 0 | Redroot pigweed plant response rating (pigweed; [4]): 0 | Redroot pigweed plant response rating (pigweed; [8]): 0 | Plant response rating, Redroot pigweed (pigweed; [10]): 0 | Redroot pigweed plant response rating (pigweed; [5]): 0 | Rape plant response rating (rape; [6]): 0 | Rape plant response rating (rape; [7]): 0 | Rape plant response rating (rape; [1]): 0 | Plant response rating, Rape (rape; [2]): 0 | Plant response rating, Rape (rape; [3]): 0 | Rape plant response rating (rape; [4]): 0 | Rape plant response rating (rape; [8]): 0 | Rape plant response rating (rape; [5]): 0 | Soybean plant response rating (soybean; [6]): 2 | Soybean plant response rating (soybean; [1]): 0 | Plant response rating, Soybean (soybean; [2]): 0 | Plant response rating, Soybean (soybean; [3]): 0 | Soybean plant response rating (soybean; [4]): 0 | Soybean plant response rating (soybean; [8]): 2 | Plant response rating, Soybean (soybean; [10]): 3 | Soybean plant response rating (soybean; [5]): 3 | Sugarbeets plant response rating (sugar beet; [6]): 0 | Sugarbeets plant response rating (sugar beet; [1]): 0 | Sugarbeets plant response rating (0 to 10 scale) (sugar beet; [11]): 0 | Plant response rating, Sugarbeets (sugar beet; [12]): 0 | Sugarbeets plant response rating (sugar beet; [4]): 0 | Sugarbeets plant response rating (sugar beet; [8]): 0 | Plant response rating, Sugarbeets (sugar beet; [13]): 0 | Sugarbeets plant response rating (sugar beet; [5]): 0 | Velvetleaf plant response rating (velvetleaf; [6]): 0 | Velvetleaf plant response rating (velvetleaf; [1]): 0 | Velvetleaf plant response rating (0 to 10 scale) (velvetleaf; [11]): 0 | Plant response rating, Velvetleaf (velvetleaf; [12]): 0 | Velvetleaf plant response rating (velvetleaf; [4]): 0 | Velvetleaf plant response rating (velvetleaf; [8]): 0 | Plant response rating, Velvetleaf (velvetleaf; [13]): 0 | Velvetleaf plant response rating (velvetleaf; [5]): 0 | Wild oats plant response rating (wild oat; [6]): 0 | Wild oats plant response rating (wild oat; [1]): 0 | Wild oats plant response rating (0 to 10 scale) (wild oat; [11]): 0 | Plant response rating, Wild oats (wild oat; [12]): 0 | Wild oats plant response rating (wild oat; [4]): 0 | Wild oats plant response rating (wild oat; [8]): 0 | Plant response rating, Wild oats (wild oat; [13]): 0 | Wild oats plant response rating (wild oat; [5]): 0 | Nutsedge plant response rating (purple nutsedge; [6]): 0 | Nutsedge plant response rating (purple nutsedge; [7]): 0 | Nutsedge plant response rating (purple nutsedge; [1]): 0 | Plant response rating, Nutsedge (purple nutsedge; [2]): 0 | Plant response rating, Nutsedge (purple nutsedge; [3]): 0 | Nutsedge plant response rating (purple nutsedge; [4]): 0 | Nutsedge plant response rating (purple nutsedge; [8]): 0 | Nutsedge plant response rating (purple nutsedge; [5]): 0 | Rice plant response rating (rice; [14]): 0 | Rice plant response rating (rice; [15]): 0 | Plant response rating, Rice (rice; [16]): 0 | Rice plant response rating (rice; [17]): 0 | S. Flatsedge plant response rating (smallflower flatsedge; [14]): 0 | S. Flatsedge plant response rating (smallflower flatsedge; [15]): 0 | Plant response rating, S. Flatsedge (smallflower flatsedge; [16]): 0 | S. Flatsedge plant response rating (smallflower flatsedge; [17]): 0 | Barnyardgrass plant response rating (bamyardgrass; [9]): 0 | Barnyardgrass plant response rating (bamyardgrass; Rate 125 g/ha, Postemergence section (flood test species), scale 0 to 10, 0 no effect, 10 complete control): 0 | Barnyardgrass plant response rating (bamyardgrass; [17]): 0 | Barnyardgrass plant response rating (bamyardgrass; flood test, listed under Postemergence, Rate 250 g/ha, scale 0 to 10, 0 no effect, 10 complete control): 0
